Experimental data from patent US9260382B2, “Methods of reducing virulence in bacteria” (priority 2010, dated 2016).

How the values were obtained:
hrpS promoter = assay: GFP reporter plasmid phrpS, flow cytometry of hrpS promoter activity; type: cell-based, Dickeya dadantii 3937; settings: for GFP Mean Fluorescence Intensity, hrpS promoter: MM + 0.1 mM compound; for mean fluorescence intensity of GFP, hrpS promoter: 3937 (phrpS), MM + 100 μM
Description: (§1) FACS analysis of promoter activity of dspE, hrpA, hrpL, hrpN, and hrpS was carried out as described (Peng et al., 2006). Briefly, the wild-type Ech3937 and the mutant strains carrying the promoter reporter plasmid were grown on LB broth at 28° C. overnight and transferred to appropriate media. For FACS analysis, samples were collected by centrifugation, washed with 1× phosphate buffer saline (PBS) at 13,000 rpm for 1 min, and re-suspended in 1×PBS to ca 10^6 CFU/ml prior to being run in a FACS Calibur flow cytometer (BD Biosciences, CA). Three replicates were performed for each treatment.
To test for an inhibitory effect on T3SS hrpS expression, the reporter plasmid phrpS was used to measure the effects of these compounds on hrpA expression.

[1] = test system: mrp promoter (reference gene); assay: GFP reporter plasmid pmrp, flow cytometry (reference gene); type: cell-based, Dickeya dadantii 3937; settings: for mean fluorescence intensity of GFP, mrp promoter: 3937 (pmrp), MM + 100 μM
Description: as §1
Since OCA and TCA induced the expression of hrpN, the effect of these two phenolic compounds on the expression of hrpA, hrpL, and hrpS was investigated further. […] GFP intensity was determined on gated populations of bacterial cells by flow cytometry and analyzed with the Cell Quest software (BD Biosciences, San Jose, Calif.). The lines labeled “1” stand for the GFP expression control base level of the Ech3937 containing pPROBE-AT vector; lines labeled “2” stand for the promoter activity of hrpS, hrpL, hrpA and hrpN in Ech3937 in MM; lines labeled “3” stand for the promoter activity of Ech3937 in MM supplemented with 0.1 mM OCA; lines labeled “4” stand for the promoter activity of hrpL mutant WPP96 in MM; lines labeled “5” stand for the promoter activity of hrpL mutant WPP96 in MM supplemented with 0.1 mM OCA. Values are representative of at least two experiments. […] Compared with MM alone, the average GFP fluorescence intensity of bacterial cells of Ech3937 (phrpA) was doubled when 0.1 mM of OCA and TCA were added to the medium (Table 4; FIG. 3). […] The mrp, whose protein product has an ATPase conserved domain (2e-06), was used as a reference gene in this study.

hrpA promoter (T3SS) = assay: hrpA promoter-probe phrpA in Erwinia amylovora 273, flow cytometry; type: cell-based; settings: Ea273 (phrpA), HIM + 100 μM compound
Procedure, shortened: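 Erwinia amylovora 273 carrying an hrpA promoter–GFP fusion (pPROBE-NT) was grown in hrp-inducing medium with 100 μM compound or DMSO. Promoter activity read as GFP intensity by flow cytometry at 6 h and 9 h.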

dspE mRNA = assay: qRT-PCR relative mRNA level of dspE; type: cell-based, Dickeya dadantii 3937; settings: 0.1 mM in MM
Description: (§2) Bacterial strains were grown in MM. Total RNA from the bacterial cells was isolated by using the TRI reagent method (Sigma, Mo.) and treated with Turbo DNA-free DNase kits (Ambion, Tex.) as described (Peng et al., 2006). An iScript cDNA Synthesis Kit (Bio-Rad, CA) was used to synthesize cDNA from 0.5 μg of treated total RNA. The Real Master Mix (Eppendorf, Westbury, N.Y.) was used for qRT-PCR reaction to quantify the cDNA level of target genes in different samples. The rplU was used as the endogenous control for data analysis. qRT-PCR data were analyzed using Relative Expression Software Tool as described (Pfaffl, M. W., Horgan, G. W., and Dempfle, L. (2002) Relative expression software tool (REST) for group-wise comparison and statistical analysis of relative expression results in real-time PCR. Nucleic Acids Res 30:e36.).

hrpA mRNA = assay: qRT-PCR relative mRNA level of hrpA; type: cell-based, Dickeya dadantii 3937; settings: 0.1 mM in MM
Description: as §2

exoS promoter (T3SS) = assay: exoS promoter-gfp reporter pATexoS, flow cytometry; type: cell-based, P. aeruginosa PA01; settings: for Actual readings of flow cytometry (exoS expression): 6 h, LB with 200 mM NaCl, 10 mM NTA; for Fraction of untreated control (exoS expression): structure-activity table, concentration not given
Description: To identify T3SS inhibitors of PA01, a promoter-probe vector pPROBE-AT containing the promoterless green fluorescent protein (gfp) gene was used to construct an exoS promoter-gfp plasmid reporter, pATexoS. PA01 containing pATexoS was cultured in T3SS-inducing medium containing dimethyl sulfoxide (DMSO; solvent of chemical compounds), or supplemented with 250 μM of each compound, and promoter activity was assessed at 6 h by measuring GFP intensity using flow cytometry. 101 compounds (58 synthesized and 43 commercially available) were screened. Compounds 027, 032, 101, and 149 repressed exoS expression at the final concentration of 250 μM by at least one standard deviation below the sample average (Z score≦−1) (FIG. 37 A-E). Z score (or standard score) indicates how many standard deviations an observation or datum is above or below the mean [z=(x−μ)/σ, where x is a raw score to be standardized, μ is the mean of the population, and σ is the standard deviation of the population].
To determine the effective concentration of compounds, the dose-dependent effect of potential inhibitors on exoS expression and bacterial growth were tested. P. aeruginosa cells carrying pATexoS were pre-cultured in LB supplemented with 200 mM NaCl and transferred to fresh LB with 200 mM NaCl, 10 mM NTA, and various concentrations of compounds (20, 50, 100, and 250 μM) or DMSO for 6 h. […] At 50 μM dosage, both 027 and 101 inhibited exoS expression at similar levels, and this inhibitory effect increased as compound concentration increased (FIG. 38A and Table 17). […] These inhibitions/inductions of exoS expression are caused by the shifting bacterial population between low-state expression cells and high-state expression cells (FIG. 40).

[2] = hrpL mutant WPP96 (phrpS), 12 h

SMILES | GFP Mean Fluorescence Intensity, hrpS promoter (hrpS promoter; Ech3937 (phrpS), 12 h) | GFP Mean Fluorescence Intensity, hrpS promoter (hrpS promoter; [2]) | GFP Mean Fluorescence Intensity, mrp promoter (reference gene) ([1]; Ech3937 (pmrp), MM + 0.1 mM compound, 12 h) | Avg MFI ± SD, hrpA expression (hrpA promoter (T3SS); 6 h) | Avg MFI ± SD, hrpA expression (hrpA promoter (T3SS); 9 h) | dspE mRNA compared with MM alone, in words (dspE mRNA) | hrpA mRNA compared with MM alone, in words (hrpA mRNA) | Actual readings of flow cytometry (exoS expression) (exoS promoter (T3SS); 20 uM) | Actual readings of flow cytometry (exoS expression) (exoS promoter (T3SS); 50 uM) | Actual readings of flow cytometry (exoS expression) (exoS promoter (T3SS); 100 uM) | Actual readings of flow cytometry (exoS expression) (exoS promoter (T3SS); 250 uM) | effect on exoS promoter activity, in words (exoS promoter (T3SS); screening for T3SS inhibitors) | Fraction of untreated control (exoS expression) (exoS promoter (T3SS)) | mean fluorescence intensity of GFP, hrpS promoter (hrpS promoter; 12 h) | mean fluorescence intensity of GFP, hrpS promoter (hrpS promoter; 24 h) | inhibitory effect on T3SS hrpS expression, in words (hrpS promoter; reporter plasmid phrpS) | mean fluorescence intensity of GFP, mrp promoter ([1]; 12 h) | mean fluorescence intensity of GFP, mrp promoter ([1]; 24 h)
O=C(O)/C=C/c1ccccc1 [Compound 001, trans-cinnamic acid] | 54 ± 2 | 360 ± 16 | 105 ± 0.3 | 471.2 ± 12.6 | 432.6 ± 17.8 | – | – | – | – | – | – | – | – | – | – | – | – | –
O=C(O)/C=C/c1ccccc1O [Compound 006, Ortho-coumaric acid] | 56 ± 1 | 350 ± 17 | – | 443 ± 16.9 | 437.8 ± 21.1 | significantly higher amount | significantly higher amount | – | – | – | – | – | – | – | – | – | – | –
O=C(O)/C=C/c1ccc(O)cc1 [Compound 004, para-coumaric acid] | – | – | – | 920.6 ± 29.1 | 993.8 ± 43.3 | significantly lower amount of mRNA | significantly lower amount of mRNA | 119.08 ± 1.82 | 127.05 ± 4.43 | 118.16 ± 2.73 | 117.74 ± 5.09 | little or no effect on exoS promoter activity | 0.94 ± 0.05 | – | – | – | – | –
O=C(/C=C/c1ccc(O)cc1)NO [Compound 103, trans-4-Hydroxycinnamohydroxamic acid] | – | – | – | 206.9 ± 3.9 | 168.2 ± 24.9 | – | – | 179.07 ± 2.98 | 237.31 ± 4.94 | 279.16 ± 2.72 | 328.30 ± 3.24 | – | 2.04 ± 0.13 | 27.7 ± 1.5 | 26.4 ± 0.6 | inhibited hrpS | 81.2 ± 0.7 | 67.7 ± 2.5
